For test [1], the target named is Serine/threonine-protein kinase Chk2 (Homo sapiens) (UniProt O96017). Briefly: Inhibition of human full length CHK2 expressed in baculovirus assessed as substrate phosphorylation using fluorescence-labelled peptides as substrate at 420 uM after 90 mins by microfluidic peptide phosphorylation assay.
For the next test, the species on record is Homo sapiens. Put plainly: Inhibition of human full length PKA expressed in baculovirus assessed as substrate phosphorylation using fluorescence-labelled peptides as substrate at 420 uM after 90 mins by microfluidic peptide phosphorylation assay.
Test [2] addresses Platelet-derived growth factor receptor alpha (Homo sapiens) (UniProt P16234). Briefly: Inhibition of human PDGFR alpha catalytic domain expressed in baculovirus assessed as substrate phosphorylation using fluorescence-labelled peptides as substrate at 420 uM after 90 mins by microfluidic peptide phosphorylation assay.
In test [3] the target is T1, Calcium/calmodulin-dependent protein kinase type IV (Homo sapiens) (UniProt Q16566).
T1 sequence (whole entry): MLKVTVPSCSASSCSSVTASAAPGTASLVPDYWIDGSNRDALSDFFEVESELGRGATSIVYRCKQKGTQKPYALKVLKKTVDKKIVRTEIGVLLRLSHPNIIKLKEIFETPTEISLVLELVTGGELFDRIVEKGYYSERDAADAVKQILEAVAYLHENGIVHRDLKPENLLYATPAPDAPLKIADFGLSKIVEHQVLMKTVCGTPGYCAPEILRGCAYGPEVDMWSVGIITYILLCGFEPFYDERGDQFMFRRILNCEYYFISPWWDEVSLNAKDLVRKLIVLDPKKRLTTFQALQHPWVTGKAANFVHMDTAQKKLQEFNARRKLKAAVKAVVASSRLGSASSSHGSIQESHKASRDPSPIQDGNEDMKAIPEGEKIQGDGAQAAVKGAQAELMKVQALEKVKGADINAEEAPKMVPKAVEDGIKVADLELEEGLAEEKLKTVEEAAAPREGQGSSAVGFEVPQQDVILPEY
Briefly: Inhibition of human full length CAMK4 expressed in baculovirus assessed as substrate phosphorylation using fluorescence-labelled peptides as substrate at 420 uM after 90 mins by microfluidic peptide phosphorylation assay.

Test [4] deals with Fibroblast growth factor receptor 1 (Homo sapiens) (UniProt P11362). Briefly: Inhibition of human FGFR1 catalytic domain expressed in baculovirus assessed as substrate phosphorylation using fluorescence-labelled peptides as substrate at 95 uM after 90 mins by microfluidic peptide phosphorylation assay.
Test [5] addresses Dual specificity tyrosine-phosphorylation-regulated kinase 1A (Rattus norvegicus) (UniProt Q63470). Briefly: Inhibition of rat full length DYRK1a expressed in Escherichia coli cell assessed as substrate phosphorylation using fluorescence-labelled peptides as substrate at 9 uM after 90 mins by microfluidic peptide phosphorylation assay.
The target of test [6] is T2, Serine/threonine-protein kinase Nek2 (Homo sapiens) (UniProt P51955).
T2 sequence (whole entry): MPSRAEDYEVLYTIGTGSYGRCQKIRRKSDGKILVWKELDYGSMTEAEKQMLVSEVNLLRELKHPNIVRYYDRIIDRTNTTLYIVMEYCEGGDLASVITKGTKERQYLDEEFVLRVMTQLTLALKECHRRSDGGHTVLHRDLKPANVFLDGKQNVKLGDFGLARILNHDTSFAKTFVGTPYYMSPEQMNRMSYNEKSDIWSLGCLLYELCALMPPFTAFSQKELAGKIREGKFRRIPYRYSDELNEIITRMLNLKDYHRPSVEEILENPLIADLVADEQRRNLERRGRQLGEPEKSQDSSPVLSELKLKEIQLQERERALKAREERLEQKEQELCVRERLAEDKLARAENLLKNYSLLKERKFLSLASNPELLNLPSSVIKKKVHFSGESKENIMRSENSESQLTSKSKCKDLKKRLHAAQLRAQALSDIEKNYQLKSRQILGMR
Briefly: Inhibition of human full length NEK2 expressed in baculovirus assessed as substrate phosphorylation using fluorescence-labelled peptides as substrate at 8 uM after 90 mins by microfluidic peptide phosphorylation assay.

The target of test [7] is Casein kinase I isoform alpha (Homo sapiens) (UniProt P48729). Put plainly: Inhibition of human full length CSNK1A1 expressed in baculovirus assessed as substrate phosphorylation using fluorescence-labelled peptides as substrate at 1000 uM after 90 mins by microfluidic peptide phosphorylation assay.
Chain of Casein kinase I isoform alpha (Homo sapiens) (P48729 2-337 limits assumed): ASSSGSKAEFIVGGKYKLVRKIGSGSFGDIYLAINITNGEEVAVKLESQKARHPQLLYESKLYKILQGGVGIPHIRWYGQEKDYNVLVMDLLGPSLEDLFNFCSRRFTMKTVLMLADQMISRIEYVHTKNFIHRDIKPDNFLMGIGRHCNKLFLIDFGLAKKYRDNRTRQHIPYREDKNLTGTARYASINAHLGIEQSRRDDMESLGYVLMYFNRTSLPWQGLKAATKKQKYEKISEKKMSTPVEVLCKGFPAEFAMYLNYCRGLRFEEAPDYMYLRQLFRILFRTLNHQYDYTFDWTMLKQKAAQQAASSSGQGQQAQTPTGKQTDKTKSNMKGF
Test [8] addresses Casein kinase I isoform delta (Homo sapiens) (UniProt P48730). Put plainly: Inhibition of human CK1D catalytic domain expressed in Escherichia coli cell assessed as substrate phosphorylation using fluorescence-labelled peptides as substrate at 1000 uM after 90 mins by microfluidic peptide phosphorylation assay.
The target of test [9] is T3, Interleukin-1 receptor-associated kinase 4 (Homo sapiens) (UniProt Q9NWZ3).
T3 sequence (whole entry): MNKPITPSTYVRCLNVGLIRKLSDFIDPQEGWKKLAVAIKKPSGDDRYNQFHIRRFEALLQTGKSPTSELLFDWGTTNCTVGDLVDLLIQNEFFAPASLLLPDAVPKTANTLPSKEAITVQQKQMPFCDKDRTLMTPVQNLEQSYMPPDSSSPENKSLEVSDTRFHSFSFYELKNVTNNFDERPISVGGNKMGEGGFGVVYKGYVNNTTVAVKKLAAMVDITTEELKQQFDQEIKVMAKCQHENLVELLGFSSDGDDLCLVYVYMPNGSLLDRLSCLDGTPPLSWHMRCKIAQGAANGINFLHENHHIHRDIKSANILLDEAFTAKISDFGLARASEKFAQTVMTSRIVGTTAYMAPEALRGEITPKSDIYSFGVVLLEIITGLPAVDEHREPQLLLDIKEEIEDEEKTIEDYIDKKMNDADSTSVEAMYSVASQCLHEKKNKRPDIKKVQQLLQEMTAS
Briefly: Inhibition of human IRAK4 catalytic domain expressed in baculovirus assessed as substrate phosphorylation using fluorescence-labelled peptides as substrate at 1000 uM after 90 mins by microfluidic peptide phosphorylation assay.

In test [10] the target is Mitogen-activated protein kinase 1 (Homo sapiens) (UniProt P28482). Briefly: Inhibition of human full length ERK2 expressed in Escherichia coli cell assessed as substrate phosphorylation using fluorescence-labelled peptides as substrate at 0.06 uM after 90 mins by microfluidic peptide phosphorylation assay.
Chain of Mitogen-activated protein kinase 1 (Homo sapiens) (P28482 whole entry): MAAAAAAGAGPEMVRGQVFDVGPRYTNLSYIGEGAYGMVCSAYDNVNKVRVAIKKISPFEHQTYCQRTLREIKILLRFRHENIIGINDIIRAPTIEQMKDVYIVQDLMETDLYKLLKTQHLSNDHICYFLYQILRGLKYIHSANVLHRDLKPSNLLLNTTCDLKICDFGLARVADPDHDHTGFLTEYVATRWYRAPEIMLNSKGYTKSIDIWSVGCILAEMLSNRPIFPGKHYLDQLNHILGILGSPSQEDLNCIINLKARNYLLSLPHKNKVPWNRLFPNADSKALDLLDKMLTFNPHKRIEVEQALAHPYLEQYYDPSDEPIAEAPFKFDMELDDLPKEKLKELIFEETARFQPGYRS
Test [11] addresses MAP kinase-activated protein kinase 2 (Homo sapiens) (UniProt P49137). Put plainly: Inhibition of human full length MAPKAPK2 expressed in baculovirus assessed as substrate phosphorylation using fluorescence-labelled peptides as substrate at 0.06 uM after 90 mins by microfluidic peptide phosphorylation assay.
For test [12], the target named is Vascular endothelial growth factor receptor 2 (Homo sapiens) (UniProt P35968). Briefly: Inhibition of human KDR cytoplasmic domain expressed in baculovirus assessed as substrate phosphorylation using fluorescence-labelled peptides as substrate at 0.06 uM after 90 mins by microfluidic peptide phosphorylation assay.
Chain of Vascular endothelial growth factor receptor 2 (Homo sapiens) (P35968 whole entry, the tested form may be a part): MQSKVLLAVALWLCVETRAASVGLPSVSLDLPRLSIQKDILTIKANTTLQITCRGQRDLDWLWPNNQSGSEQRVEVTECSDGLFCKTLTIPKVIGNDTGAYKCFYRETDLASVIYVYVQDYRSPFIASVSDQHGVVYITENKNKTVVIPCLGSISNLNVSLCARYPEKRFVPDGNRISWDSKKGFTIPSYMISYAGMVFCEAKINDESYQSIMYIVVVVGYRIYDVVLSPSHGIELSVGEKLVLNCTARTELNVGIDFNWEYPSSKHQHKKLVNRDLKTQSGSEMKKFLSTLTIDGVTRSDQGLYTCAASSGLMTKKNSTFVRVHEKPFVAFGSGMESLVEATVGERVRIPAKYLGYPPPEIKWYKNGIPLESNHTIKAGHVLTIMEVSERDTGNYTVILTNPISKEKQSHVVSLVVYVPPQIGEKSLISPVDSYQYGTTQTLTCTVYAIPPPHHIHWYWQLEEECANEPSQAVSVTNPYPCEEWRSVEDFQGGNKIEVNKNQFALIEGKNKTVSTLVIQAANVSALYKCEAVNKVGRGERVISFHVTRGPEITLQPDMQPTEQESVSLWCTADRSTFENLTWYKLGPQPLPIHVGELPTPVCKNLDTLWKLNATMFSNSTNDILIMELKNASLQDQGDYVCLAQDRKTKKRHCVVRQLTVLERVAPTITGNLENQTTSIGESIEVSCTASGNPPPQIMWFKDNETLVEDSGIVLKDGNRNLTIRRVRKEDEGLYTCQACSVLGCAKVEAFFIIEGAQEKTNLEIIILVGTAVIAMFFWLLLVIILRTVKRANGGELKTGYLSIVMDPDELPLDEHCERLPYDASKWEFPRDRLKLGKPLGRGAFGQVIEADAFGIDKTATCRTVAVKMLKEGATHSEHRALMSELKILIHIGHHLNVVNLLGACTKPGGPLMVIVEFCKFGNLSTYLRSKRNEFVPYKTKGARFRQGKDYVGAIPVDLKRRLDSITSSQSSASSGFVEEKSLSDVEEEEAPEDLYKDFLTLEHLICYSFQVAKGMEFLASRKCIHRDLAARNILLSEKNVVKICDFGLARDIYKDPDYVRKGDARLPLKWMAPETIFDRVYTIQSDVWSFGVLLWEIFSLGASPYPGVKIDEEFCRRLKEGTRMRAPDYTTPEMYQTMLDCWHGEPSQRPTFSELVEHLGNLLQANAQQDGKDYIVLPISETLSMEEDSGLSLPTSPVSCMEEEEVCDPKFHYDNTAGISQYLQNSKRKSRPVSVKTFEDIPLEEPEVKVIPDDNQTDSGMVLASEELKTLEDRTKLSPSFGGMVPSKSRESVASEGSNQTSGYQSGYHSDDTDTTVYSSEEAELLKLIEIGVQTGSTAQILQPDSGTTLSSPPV
Test [13] has as its target Hepatocyte growth factor receptor (Homo sapiens) (UniProt P08581). Put plainly: Inhibition of human MET cytoplasmic domain expressed in baculovirus assessed as substrate phosphorylation using fluorescence-labelled peptides as substrate at 2 uM after 90 mins by microfluidic peptide phosphorylation assay.

SMILES strings stand for the structures.

Usually inhibition stands for the drop in the measured response relative to a control, in per cent.

Chain of Casein kinase I isoform delta (Homo sapiens) (P48730 whole entry, looked up, the tested form may be a part, canonical isoform): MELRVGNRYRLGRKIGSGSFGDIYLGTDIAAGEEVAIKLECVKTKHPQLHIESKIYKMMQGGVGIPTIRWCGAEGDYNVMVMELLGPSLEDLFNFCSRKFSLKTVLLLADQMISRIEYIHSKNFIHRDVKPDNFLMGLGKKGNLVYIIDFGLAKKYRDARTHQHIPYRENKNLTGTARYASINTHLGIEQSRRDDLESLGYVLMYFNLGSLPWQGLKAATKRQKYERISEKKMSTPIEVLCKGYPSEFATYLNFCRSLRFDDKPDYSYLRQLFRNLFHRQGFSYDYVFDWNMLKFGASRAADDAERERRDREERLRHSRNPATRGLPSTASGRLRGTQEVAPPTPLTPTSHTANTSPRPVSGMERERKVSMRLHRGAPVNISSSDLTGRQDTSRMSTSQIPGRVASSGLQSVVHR
Chain of Hepatocyte growth factor receptor (Homo sapiens) (P08581 whole entry, the tested form may be a part): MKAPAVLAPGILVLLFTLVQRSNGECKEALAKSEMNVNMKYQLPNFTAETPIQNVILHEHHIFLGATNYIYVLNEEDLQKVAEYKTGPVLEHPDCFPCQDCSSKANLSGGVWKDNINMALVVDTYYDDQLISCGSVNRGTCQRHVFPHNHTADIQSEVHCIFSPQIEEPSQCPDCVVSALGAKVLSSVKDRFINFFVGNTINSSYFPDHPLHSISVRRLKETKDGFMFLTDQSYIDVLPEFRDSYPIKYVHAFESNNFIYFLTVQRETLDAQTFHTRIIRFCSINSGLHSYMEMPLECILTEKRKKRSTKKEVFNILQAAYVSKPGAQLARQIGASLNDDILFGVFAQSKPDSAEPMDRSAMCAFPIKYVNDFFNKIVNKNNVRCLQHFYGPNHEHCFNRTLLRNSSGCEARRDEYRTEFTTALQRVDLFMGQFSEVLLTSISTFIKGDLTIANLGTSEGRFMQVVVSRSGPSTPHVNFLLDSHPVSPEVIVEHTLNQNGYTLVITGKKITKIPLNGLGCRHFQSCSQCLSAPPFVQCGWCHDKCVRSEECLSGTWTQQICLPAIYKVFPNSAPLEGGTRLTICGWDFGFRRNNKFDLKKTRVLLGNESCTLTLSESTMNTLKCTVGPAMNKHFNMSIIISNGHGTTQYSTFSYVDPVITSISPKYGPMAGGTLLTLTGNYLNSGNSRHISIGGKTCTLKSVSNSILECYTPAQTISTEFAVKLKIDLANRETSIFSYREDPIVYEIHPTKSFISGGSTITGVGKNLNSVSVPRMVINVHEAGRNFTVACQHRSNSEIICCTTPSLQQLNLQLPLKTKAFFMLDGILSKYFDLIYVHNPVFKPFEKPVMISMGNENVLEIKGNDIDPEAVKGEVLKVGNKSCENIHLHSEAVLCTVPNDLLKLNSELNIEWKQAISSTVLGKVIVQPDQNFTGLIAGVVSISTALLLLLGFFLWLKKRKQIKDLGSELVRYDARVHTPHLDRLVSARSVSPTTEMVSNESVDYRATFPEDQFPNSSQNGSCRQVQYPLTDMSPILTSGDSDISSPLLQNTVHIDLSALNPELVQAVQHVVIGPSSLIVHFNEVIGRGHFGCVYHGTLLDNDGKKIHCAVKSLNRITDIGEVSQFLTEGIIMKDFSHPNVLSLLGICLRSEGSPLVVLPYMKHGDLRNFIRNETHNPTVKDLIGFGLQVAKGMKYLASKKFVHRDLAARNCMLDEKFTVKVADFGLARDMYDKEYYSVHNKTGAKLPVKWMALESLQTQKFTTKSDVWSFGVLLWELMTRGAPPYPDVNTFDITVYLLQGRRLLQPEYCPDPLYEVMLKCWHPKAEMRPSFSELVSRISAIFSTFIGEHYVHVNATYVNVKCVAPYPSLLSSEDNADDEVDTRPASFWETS
Chain of MAP kinase-activated protein kinase 2 (Homo sapiens) (P49137 whole entry, looked up, the tested form may be a part): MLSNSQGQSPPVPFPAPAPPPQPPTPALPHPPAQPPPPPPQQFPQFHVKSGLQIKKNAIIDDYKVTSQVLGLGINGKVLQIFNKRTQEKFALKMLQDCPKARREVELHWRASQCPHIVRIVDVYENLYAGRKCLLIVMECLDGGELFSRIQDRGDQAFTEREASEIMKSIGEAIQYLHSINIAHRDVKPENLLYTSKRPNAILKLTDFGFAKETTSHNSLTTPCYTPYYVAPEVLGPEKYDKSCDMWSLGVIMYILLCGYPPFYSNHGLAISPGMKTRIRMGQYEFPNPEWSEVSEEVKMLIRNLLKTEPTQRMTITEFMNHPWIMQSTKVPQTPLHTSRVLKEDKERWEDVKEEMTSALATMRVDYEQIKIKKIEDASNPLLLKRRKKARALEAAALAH
Chain of Serine/threonine-protein kinase Chk2 (Homo sapiens) (O96017 whole entry): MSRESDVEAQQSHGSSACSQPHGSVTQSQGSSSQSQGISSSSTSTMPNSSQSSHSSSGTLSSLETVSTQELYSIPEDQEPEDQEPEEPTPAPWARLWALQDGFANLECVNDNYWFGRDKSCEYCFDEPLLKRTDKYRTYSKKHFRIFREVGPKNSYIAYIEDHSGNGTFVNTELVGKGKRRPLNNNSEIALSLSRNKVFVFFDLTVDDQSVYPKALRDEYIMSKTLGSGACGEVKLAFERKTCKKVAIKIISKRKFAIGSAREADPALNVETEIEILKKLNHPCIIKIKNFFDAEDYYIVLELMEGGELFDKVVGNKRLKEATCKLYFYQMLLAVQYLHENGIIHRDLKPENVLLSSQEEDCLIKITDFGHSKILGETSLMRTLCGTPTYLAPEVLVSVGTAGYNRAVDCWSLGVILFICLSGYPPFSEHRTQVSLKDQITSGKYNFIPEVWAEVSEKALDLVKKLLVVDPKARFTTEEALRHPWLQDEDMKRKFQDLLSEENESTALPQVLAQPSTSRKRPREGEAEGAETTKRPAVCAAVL

`c1nc(N2CCOCC2)c2nc[nH]c2n1`: the inhibition in test [1] stood at 85%; in the test filed under Homo sapiens it was 92.5%; in test [2], 32.5%; in [3], 62%.
`NCCc1ccc(-c2ncnc3[nH]cnc23)cc1`: in [4], the inhibition turned out to be 72%.
For `NCC1CN(c2ncnc3[nH]c4cnccc4c23)CCO1` (centres undefined), the inhibition in test [5] stood at 7.5%.
For `NCC1CCN(c2ncnc3[nH]ccc23)CC1`, the inhibition in test [6] worked out at 0%.
For `c1cnc2[nH]ccc2c1`, the results for the inhibition in [7], in test [8] and in [9] were 73.5%, 94.5% and 65%, respectively.
Consider `NC1(Cc2ccc(Cl)cc2)CCN(c2ncnc3[nH]ccc23)CC1`, for which the inhibition in test [10] amounted to 4.5%; in [11], 0%; in [12], 0%.
On to `NC1CCN(c2ncnc3[nH]ccc23)CC1`, for which the inhibition in test [13] is 0%.

For the origin of these results see ChEMBL document CHEMBL3132769, “Fragment growing to retain or alter the selectivity of anchored kinase hinge-binding fragments” (Medchemcomm, 2014).
